Test results reported in patent US20220332726A1, “NITROXIDE DERIVATIVE OF ROCK KINASE INHIBITOR” (VIVAVISION (SHANGHAI) LTD, priority 2020, published 2022).

What was measured:
ROCK2 = ROCK2 (Homo sapiens, UniProt O75116); test: ROCK2 kinase inhibitor activity test (HTRF); assay type: biochemical; conditions: ROCK2 1 nM, substrate 500 nM, ATP 6 uM, 1.5 hours at room temperature, read-out: ROCK2 kinase inhibitor activities (IC50)
Protocol: ROCK2 Kinase Inhibitor Activity Test
1) 4× ROCK2 reaction solution, 4×ATP reaction solution, 4× substrate solution, and 4× compound solution were prepared according to experimental requirements.
2) 2.5 μL of 4× kinase solution and 2.5 μL of diluted 4× test compound solutions with different concentration gradients were added to a 384-well plate. 2 replicate wells were provided for each concentration, and an enzyme solution blank control group and a negative control group (DMSO group) were provided at the same time. Centrifugation was performed at 1000 rpm for 1 minute, and the enzyme and the compounds were mixed. 2.5 μL of 4× substrate solution was added to the 384-well plate, centrifugation was performed at 1000 rpm for 1 minute, 2.5 μL of 4× ATP solution was added to the 384-well plate, centrifugation was performed at 1000 rpm for 1 minute to start the enzyme reaction, and incubation was performed at room temperature for 1.5 hours.
The final concentration of each component of the ROCK2 reaction was: ROCK2: 1 nM, substrate: 500 nM, ATP: 6 uM, and the final concentration range of the test compounds was: 100 nM to 5 pM.
3) 4× Streptavidin-XL-665 detection solution was prepared according to experimental requirements.
4) After the enzyme reaction was completed, 5 ul of 4× Streptavidin-XL-665 detection solution was added to each well of the 384-well plate, and centrifugation was performed at 1000 rpm for 1 minute. 5 μL of 4×STK Antibody-cryptate detection antibody solution was added to each well of the 384-well plate, centrifugation was performed at 1000 rpm for 1 minute, and incubation was performed for 1 hour at room temperature.
5) After antibody incubation was completed, the signal value of each well was measured by the HTRF program on an Envision plate reader.
1) Taking the enzyme solution blank control group as 100% inhibition rate and the negative control group (DMSO group) as 0% inhibition rate, the percentage inhibition rate corresponding to each concentration of the test compound was calculated.
2) In the GraphPad Prism software, a nonlinear regression analysis was performed on the logarithm of the concentrations of the test compounds and the corresponding percentage inhibition rates to obtain the half-inhibitory concentrations (IC50) of the test compounds.
The ROCK2 kinase inhibitor activities (IC50) of the compounds detected by this method are as follows: […]

[1] = system: Phospho-Myosin Light Chain2 (Ser19); test: Cell activity test: MLC2 (Ser19) phosphorylation in A7R5 cells (Western blot); assay type: cell-based; conditions: starved 20 hours, compound treatment 60 minutes, MLC2 (Ser19) phosphorylation corrected with GAPDH, read-out: cell activities (IC50)
Protocol: Example 43: Cell Activity Test
1) The A7R5 cells in the logarithmic growth phase were digested, 2E5 cells per well were inoculated in a 6-well plate and incubated overnight at 37° C. with 5% CO2, and the cell culture medium was replaced with a starvation medium containing 0.05% FBS after 24 hours. The cells were starved for 20 hours.
2) The starvation medium was removed, the cells were treated with the prepared compound concentration gradient for 60 minutes, VIP-5021 (10 uM) was set as the positive control, and the DMSO group was set as the negative control.
3) After the compound treatment, the compound solutions were aspirated, washed with PBS two times, 100 ul of cell lysate was added to each well, the cells were gently scraped with a cell scraper, and the cells were transferred to a centrifuge tube and lysed on ice for 60 minutes.
4) After the lysis, centrifugation was performed at 4° C. and 14000 rpm for 15 minutes, the lysate supernatant was collected, protein quantification was performed using the BCA method, the protein concentration was adjusted, the loading buffer was added according to proportion, and treatment was performed at 100° C. for 10 minutes to denature the protein.
5) An electrophoresis equipment was assembled, 20 ug of total protein was loaded per sample, the voltage was fixed at 125 V, and electrophoresis was performed for 90 minutes. After the electrophoresis was completed, the membrane transfer system was assembled with a fixed current of 300 mA and the membrane was transferred for 120 minutes. After the membrane transfer was completed, the PVDF membrane was removed and washed with PBS two times. A blocking solution was added to block at room temperature for 60 minutes. The blocking solution was removed, a solution containing the primary antibody (Phospho-Myosin Light Chain2 (Ser19)) (antibody dilution ratio 1:1000) was added, GAPDH was selected as internal control, and incubation was performed overnight at 4° C.
6) Washing was performed with PBST three times, HRP-antibody containing the corresponding species (secondary antibody dilution ratio 1:2000) was added, incubation was performed at room temperature for 60 minutes, and washing was performed with PBST three times. HRP chemiluminescence substrate was prepared, and dropwisely added on the PVDF membrane based on 0.1 mL per square centimeter to react for 30 seconds, and the chemiluminescence signal was collected with a gel imager (ChemiDoc XRS+(BIO-RAD)).
7) Each band was quantitatively analyzed using image J software, and the phosphorylated protein level of Phospho-Myosin Light Chain2 (Ser19) in each sample was corrected using GAPDH expression as internal reference.
1) Taking the MLC2 (Ser19) protein phosphorylation level of the highest concentration compound sample as 100% inhibition rate, and taking the MLC2 (Ser19) protein phosphorylation level of the negative control group (DMSO group) as 0% inhibition rate, the percentage inhibition rate corresponding to each concentration of the test compounds was calculated.
2) In the GraphPad Prism software, a nonlinear regression analysis was performed on the logarithm of the concentrations of the test compounds and the corresponding percentage inhibition rates to obtain the half-inhibitory concentrations (IC50) of the cell levels of the test compounds.
The cell activities (IC50) of the compounds detected by this method are as follows: […]

Chain of ROCK2 (O75116 whole entry): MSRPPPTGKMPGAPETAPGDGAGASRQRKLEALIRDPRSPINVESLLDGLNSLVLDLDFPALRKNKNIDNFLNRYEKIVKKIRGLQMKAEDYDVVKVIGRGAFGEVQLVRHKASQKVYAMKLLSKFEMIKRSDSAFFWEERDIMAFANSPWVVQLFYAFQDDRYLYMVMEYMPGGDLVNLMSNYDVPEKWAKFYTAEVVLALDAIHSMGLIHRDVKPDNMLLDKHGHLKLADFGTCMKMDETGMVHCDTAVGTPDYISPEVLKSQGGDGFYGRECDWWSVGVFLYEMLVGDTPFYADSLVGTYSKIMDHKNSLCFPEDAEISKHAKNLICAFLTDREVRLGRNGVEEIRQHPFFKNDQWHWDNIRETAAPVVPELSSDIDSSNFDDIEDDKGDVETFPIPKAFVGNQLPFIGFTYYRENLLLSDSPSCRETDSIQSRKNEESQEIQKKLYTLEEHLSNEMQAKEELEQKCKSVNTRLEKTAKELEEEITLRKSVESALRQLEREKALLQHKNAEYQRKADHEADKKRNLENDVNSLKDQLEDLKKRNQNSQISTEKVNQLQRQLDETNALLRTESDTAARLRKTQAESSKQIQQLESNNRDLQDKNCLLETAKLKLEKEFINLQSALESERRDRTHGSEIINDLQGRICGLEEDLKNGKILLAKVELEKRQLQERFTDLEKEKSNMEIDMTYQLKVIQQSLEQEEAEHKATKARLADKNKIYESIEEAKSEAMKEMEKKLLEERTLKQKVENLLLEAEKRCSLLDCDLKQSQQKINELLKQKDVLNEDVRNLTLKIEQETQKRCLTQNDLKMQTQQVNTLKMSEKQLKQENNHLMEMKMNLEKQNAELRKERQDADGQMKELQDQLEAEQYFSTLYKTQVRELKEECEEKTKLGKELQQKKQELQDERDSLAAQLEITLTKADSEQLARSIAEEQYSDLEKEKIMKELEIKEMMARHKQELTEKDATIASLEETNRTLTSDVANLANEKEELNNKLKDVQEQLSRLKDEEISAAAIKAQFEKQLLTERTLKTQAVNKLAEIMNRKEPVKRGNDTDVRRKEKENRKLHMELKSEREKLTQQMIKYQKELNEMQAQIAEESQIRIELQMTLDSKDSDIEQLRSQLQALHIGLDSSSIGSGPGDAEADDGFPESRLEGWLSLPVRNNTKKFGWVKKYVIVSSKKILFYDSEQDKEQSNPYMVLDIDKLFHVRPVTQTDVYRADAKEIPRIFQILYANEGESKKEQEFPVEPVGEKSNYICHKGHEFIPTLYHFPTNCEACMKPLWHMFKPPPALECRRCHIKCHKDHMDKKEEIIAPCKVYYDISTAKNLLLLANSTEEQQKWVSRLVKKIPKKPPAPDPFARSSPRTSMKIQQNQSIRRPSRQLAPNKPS

IC50 (ROCK2) | IC50 [1] | Compound
5.9 nM | 35.8 nM | NCC(C(=O)Nc1cc2ccncc2s1)c1ccc(CCCO[N+](=O)[O-])cc1 (centres unmarked) [Example 8, 3-(4-(3-amino-1-oxo-1-thieno[2,3-c]pyridin-2-ylamino)prop-2-yl)phenyl)propyl nitrate]
1.02 nM | 30.3 nM | NC[C@@H](C(=O)Nc1cc2ccncc2s1)c1ccc(COC(=O)CCCCO[N+](=O)[O-])cc1 [Example 9, (S)-4-(3-amino-1-oxo-1-(thieno[2,3-c]pyridin-2-ylamino)prop-2-yl)benzyl 5-(nitrooxy)valerate]
6.01 nM | 21.4 nM | NC[C@@H](C(=O)Nc1cc2ccncc2s1)c1ccc(CCO[N+](=O)[O-])cc1 [Example 11, (S)-4-(3-amino-1-oxo-1-(thieno[2,3-c]pyridin-2-ylamino)propan-2-yl)phenethyl nitrate]
1.51 nM | 39.5 nM | NC[C@@H](C(=O)Nc1cc2ccncc2s1)c1ccc(COC(=O)OCCCCO[N+](=O)[O-])cc1 [Example 13, (S)-4-(3-amino-1-oxo-1-(thieno[2,3-c]pyridin-2-ylamino)prop-2-yl)benzyl(4-(nitrooxy)butyl)carbonate]
